Where two headings read alike, the source gives them in different places.
Assays:
Test in all cases: SelectScreen Z-LYTE kinase activity assay (SI Table 6)
Type in all cases: biochemical
[1] = biological target: protein kinases of the Z-LYTE panel (Homo sapiens, UniProt Q9HCP0)
Method in brief: (§1)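 A counterscreen of 133 protein and 7 lipid kinases was run with one compound concentration, 1 μM 1938, in SelectScreen Adapta, Lantha or Z-LYTE assays.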

[2] = biological target: protein kinases of the Z-LYTE panel (Homo sapiens, UniProt Q96GD4)
Sequence of protein kinases of the Z-LYTE panel (Homo sapiens, UniProt Q96GD4) (Q96GD4 whole entry): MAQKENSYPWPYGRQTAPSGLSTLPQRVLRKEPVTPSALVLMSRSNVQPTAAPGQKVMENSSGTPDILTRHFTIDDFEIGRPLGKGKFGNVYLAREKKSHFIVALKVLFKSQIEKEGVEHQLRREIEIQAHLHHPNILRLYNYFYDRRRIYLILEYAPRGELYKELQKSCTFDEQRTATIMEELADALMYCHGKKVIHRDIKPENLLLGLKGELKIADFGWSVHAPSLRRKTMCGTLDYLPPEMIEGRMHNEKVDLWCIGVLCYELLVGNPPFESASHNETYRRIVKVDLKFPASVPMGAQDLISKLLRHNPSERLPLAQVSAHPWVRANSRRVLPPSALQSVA
Method in brief: as §1

[3] = biological target: protein kinases of the Z-LYTE panel (Homo sapiens, UniProt P22607)
Sequence of protein kinases of the Z-LYTE panel (Homo sapiens, UniProt P22607) (P22607 23-806): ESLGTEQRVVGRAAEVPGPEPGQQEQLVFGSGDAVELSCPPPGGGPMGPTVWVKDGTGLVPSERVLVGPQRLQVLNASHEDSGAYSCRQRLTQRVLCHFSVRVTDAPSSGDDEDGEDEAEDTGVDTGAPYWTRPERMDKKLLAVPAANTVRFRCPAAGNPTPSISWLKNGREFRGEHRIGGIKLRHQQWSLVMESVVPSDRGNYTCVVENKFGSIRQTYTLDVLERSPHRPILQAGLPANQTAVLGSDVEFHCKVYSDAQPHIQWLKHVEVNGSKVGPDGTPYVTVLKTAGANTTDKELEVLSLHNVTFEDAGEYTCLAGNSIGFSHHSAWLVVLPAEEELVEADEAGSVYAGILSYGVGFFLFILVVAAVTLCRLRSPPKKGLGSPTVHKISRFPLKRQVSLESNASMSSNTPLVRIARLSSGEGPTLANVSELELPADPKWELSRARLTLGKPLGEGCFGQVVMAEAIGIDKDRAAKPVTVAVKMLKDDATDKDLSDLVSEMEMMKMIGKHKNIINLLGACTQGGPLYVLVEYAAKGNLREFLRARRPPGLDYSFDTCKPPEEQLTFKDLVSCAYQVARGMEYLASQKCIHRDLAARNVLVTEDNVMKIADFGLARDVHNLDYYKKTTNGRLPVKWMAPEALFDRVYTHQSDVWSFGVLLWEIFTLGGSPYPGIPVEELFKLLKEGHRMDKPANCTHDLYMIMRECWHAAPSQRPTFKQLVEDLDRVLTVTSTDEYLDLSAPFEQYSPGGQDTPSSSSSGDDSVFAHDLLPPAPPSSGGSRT
Method in brief: as §1

[4] = biological target: T1, protein kinases of the Z-LYTE panel (Homo sapiens, UniProt Q13043)
T1 sequence (Q13043 1-487): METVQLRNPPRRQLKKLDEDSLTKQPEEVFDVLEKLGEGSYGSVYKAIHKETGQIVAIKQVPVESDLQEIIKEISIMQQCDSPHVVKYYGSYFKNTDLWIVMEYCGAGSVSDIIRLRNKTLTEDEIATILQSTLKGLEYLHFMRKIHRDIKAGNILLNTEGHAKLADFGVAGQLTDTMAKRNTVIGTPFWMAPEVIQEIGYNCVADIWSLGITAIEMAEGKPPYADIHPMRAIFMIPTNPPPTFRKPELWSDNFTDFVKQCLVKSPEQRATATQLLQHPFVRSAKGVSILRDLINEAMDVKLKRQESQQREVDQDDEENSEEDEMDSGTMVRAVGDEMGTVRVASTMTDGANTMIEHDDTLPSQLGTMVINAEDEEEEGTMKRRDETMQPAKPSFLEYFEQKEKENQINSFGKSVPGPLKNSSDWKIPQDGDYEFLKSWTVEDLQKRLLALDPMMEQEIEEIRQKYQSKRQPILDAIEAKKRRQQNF
Method in brief: as §1

[5] = biological target: protein kinases of the Z-LYTE panel (Homo sapiens, UniProt P11362)
Sequence of protein kinases of the Z-LYTE panel (Homo sapiens, UniProt P11362) (P11362 22-822): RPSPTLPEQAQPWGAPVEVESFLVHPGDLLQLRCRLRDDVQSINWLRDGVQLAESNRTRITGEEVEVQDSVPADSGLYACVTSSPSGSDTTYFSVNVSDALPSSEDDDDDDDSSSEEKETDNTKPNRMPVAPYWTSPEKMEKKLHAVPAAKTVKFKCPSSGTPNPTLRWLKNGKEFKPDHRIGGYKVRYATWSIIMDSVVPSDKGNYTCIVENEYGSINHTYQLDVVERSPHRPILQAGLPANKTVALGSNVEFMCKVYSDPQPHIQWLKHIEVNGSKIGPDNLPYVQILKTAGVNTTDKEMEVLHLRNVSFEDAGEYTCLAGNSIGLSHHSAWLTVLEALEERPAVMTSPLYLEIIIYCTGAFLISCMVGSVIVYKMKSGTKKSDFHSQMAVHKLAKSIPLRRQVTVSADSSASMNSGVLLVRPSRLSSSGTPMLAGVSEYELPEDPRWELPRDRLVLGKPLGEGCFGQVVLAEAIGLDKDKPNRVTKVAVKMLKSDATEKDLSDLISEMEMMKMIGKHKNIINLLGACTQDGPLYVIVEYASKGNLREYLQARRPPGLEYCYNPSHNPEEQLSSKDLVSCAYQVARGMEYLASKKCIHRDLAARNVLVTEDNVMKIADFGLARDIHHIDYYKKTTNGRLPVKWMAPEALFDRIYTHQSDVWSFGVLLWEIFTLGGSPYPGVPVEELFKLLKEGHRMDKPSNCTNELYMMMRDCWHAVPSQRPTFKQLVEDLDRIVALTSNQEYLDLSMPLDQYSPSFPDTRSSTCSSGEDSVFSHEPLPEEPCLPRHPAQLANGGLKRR
Method in brief: as §1

[6] = biological target: protein kinases of the Z-LYTE panel (Homo sapiens, UniProt P49840)
Sequence of protein kinases of the Z-LYTE panel (Homo sapiens, UniProt P49840) (P49840 whole entry): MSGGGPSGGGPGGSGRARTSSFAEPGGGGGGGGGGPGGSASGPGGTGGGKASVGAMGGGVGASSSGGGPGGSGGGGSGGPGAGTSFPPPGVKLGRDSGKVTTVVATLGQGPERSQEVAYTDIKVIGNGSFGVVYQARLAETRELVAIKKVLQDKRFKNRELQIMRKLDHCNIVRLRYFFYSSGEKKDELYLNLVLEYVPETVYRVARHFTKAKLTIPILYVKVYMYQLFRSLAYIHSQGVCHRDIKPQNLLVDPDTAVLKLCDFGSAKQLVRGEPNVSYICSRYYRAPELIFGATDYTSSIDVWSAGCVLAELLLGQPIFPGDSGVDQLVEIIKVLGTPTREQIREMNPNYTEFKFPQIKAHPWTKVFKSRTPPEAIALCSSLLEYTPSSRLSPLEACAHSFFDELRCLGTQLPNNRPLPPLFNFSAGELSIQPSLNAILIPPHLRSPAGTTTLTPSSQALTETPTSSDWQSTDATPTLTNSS
Method in brief: as §1

[7] = biological target: protein kinases of the Z-LYTE panel (Homo sapiens, UniProt P00533, L858R/T790M)
Sequence of protein kinases of the Z-LYTE panel (Homo sapiens, UniProt P00533, L858R/T790M) (P00533 25-1210 T790M/L858R): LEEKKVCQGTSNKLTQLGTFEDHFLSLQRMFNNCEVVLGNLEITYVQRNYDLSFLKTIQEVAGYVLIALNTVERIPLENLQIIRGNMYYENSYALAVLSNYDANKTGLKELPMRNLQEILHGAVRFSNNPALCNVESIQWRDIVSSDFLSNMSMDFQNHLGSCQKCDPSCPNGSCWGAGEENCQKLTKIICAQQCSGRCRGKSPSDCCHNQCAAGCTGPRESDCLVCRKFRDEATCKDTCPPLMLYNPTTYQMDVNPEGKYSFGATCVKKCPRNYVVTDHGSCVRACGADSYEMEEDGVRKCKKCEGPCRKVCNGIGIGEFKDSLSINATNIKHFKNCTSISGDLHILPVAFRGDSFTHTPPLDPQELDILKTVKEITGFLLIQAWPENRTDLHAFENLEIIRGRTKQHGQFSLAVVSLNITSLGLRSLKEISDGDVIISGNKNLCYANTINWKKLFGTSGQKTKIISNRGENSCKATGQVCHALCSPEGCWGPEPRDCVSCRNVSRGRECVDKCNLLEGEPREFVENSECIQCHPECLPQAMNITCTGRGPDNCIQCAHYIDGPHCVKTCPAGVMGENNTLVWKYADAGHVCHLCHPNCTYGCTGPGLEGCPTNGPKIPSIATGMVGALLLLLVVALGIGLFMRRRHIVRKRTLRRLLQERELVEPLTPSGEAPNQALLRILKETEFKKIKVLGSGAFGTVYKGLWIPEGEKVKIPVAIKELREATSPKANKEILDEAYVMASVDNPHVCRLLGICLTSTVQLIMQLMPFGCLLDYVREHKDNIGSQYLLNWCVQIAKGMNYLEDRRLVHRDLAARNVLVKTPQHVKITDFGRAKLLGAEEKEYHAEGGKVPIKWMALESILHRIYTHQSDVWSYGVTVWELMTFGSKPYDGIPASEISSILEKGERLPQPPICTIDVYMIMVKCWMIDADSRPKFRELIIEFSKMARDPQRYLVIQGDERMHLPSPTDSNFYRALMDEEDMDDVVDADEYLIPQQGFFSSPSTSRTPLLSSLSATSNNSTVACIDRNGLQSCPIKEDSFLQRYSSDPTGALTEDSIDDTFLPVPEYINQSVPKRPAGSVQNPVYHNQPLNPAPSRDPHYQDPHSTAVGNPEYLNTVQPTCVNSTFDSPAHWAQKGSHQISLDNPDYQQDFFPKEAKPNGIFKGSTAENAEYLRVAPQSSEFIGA
Method in brief: as §1

[8] = biological target: protein kinases of the Z-LYTE panel (Homo sapiens, UniProt P06241)
Sequence of protein kinases of the Z-LYTE panel (Homo sapiens, UniProt P06241) (P06241 whole entry): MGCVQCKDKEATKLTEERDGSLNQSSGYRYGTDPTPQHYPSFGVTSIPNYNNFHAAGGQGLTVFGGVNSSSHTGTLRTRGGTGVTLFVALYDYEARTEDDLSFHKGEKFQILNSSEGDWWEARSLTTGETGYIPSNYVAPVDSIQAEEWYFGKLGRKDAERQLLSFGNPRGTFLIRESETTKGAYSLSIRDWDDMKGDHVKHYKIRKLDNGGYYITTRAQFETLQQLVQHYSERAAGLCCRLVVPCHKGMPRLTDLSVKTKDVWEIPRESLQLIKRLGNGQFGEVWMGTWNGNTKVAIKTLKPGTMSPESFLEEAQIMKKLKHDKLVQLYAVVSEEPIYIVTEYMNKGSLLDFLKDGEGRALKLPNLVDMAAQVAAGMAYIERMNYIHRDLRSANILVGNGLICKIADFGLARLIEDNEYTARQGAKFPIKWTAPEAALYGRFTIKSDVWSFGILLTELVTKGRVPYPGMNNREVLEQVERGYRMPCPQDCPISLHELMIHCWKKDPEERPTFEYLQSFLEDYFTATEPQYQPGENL
Method in brief: as §1

[9] = biological target: protein kinases of the Z-LYTE panel (Homo sapiens, UniProt Q16620)
Method in brief: as §1

[10] = biological target: protein kinases of the Z-LYTE panel (Homo sapiens, UniProt P31751)
Sequence of protein kinases of the Z-LYTE panel (Homo sapiens, UniProt P31751) (P31751 whole entry): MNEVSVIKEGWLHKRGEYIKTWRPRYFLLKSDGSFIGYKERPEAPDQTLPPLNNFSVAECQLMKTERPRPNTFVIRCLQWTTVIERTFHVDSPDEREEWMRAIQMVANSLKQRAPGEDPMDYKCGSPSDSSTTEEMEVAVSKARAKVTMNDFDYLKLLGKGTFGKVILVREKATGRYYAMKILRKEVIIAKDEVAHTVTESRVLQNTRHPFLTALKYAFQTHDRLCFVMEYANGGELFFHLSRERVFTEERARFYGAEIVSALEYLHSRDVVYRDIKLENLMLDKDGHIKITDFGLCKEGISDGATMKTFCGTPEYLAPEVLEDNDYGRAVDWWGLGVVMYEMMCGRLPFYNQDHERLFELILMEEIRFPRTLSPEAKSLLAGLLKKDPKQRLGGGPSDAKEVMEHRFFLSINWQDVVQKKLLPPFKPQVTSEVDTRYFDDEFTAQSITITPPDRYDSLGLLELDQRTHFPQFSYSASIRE
Method in brief: as §1

[11] = biological target: T2, protein kinases of the Z-LYTE panel (Homo sapiens, UniProt Q9NWZ3)
T2 sequence (Q9NWZ3 1-460): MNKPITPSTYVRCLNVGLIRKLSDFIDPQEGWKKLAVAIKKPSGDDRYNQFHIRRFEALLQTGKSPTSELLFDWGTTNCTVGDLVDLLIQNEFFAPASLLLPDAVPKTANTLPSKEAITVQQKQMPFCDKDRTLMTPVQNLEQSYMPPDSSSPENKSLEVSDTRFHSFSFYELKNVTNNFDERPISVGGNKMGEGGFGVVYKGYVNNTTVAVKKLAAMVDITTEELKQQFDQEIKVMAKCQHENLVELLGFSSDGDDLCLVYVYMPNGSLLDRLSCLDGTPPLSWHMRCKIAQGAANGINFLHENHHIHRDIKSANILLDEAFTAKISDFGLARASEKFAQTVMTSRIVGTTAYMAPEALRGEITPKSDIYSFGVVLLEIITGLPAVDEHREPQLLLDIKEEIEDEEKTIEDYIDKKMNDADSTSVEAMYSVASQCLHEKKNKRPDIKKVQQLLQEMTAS
Method in brief: as §1

Sequence of protein kinases of the Z-LYTE panel (Homo sapiens, UniProt Q9HCP0) (Q9HCP0 whole entry): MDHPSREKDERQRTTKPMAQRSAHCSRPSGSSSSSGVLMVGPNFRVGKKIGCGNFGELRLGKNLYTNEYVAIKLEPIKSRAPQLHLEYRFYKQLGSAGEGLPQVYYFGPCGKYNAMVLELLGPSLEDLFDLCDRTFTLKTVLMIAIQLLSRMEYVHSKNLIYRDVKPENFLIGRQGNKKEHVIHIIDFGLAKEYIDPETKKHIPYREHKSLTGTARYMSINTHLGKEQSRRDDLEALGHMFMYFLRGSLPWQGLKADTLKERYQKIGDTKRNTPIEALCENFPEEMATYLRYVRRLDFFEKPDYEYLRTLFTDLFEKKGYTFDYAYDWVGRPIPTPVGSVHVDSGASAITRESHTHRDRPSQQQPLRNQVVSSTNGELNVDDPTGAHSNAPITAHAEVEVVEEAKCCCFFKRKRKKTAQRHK

`CCN1CCN(c2ccc(Nc3cc(Nc4cccc5c4N(C(C)=O)CC5)ccn3)cc2)CC1` [Compound 1938] gave an inhibition at 1 µM ([1]; read-out: % Inhibition Point 1) of 0.622%, an inhibition at 1 µM ([1]; read-out: % Inhibition Point 2) of -0.215% and an inhibition at 1 µM ([1]; read-out: % Inhibition mean) of 0.204%. For the same compound, the inhibition at 1 µM ([2]; read-out: % Inhibition Point 1) was 30%, the inhibition at 1 µM ([2]; read-out: % Inhibition Point 2) was 29% and the inhibition at 1 µM ([2]; read-out: % Inhibition mean) was 30%. It also gave an inhibition at 1 µM ([3]; read-out: % Inhibition Point 1) of 6%, an inhibition at 1 µM ([3]; read-out: % Inhibition Point 2) of 6% and an inhibition at 1 µM ([3]; read-out: % Inhibition mean) of 6%. It also gave an inhibition at 1 µM ([4]; read-out: % Inhibition Point 1) of 4%, an inhibition at 1 µM ([4]; read-out: % Inhibition Point 2) of 1.07% and an inhibition at 1 µM ([4]; read-out: % Inhibition mean) of 2.46%. For the same compound, the inhibition at 1 µM ([5]; read-out: % Inhibition Point 1) was 25%, the inhibition at 1 µM ([5]; read-out: % Inhibition Point 2) was 23% and the inhibition at 1 µM ([5]; read-out: % Inhibition mean) was 24%. For the same compound, the inhibition at 1 µM ([6]; read-out: % Inhibition Point 1) was 0.632%, the inhibition at 1 µM ([6]; read-out: % Inhibition Point 2) was 0.0257% and the inhibition at 1 µM ([6]; read-out: % Inhibition mean) was 0.329%. The inhibition at 1 µM ([7]; read-out: % Inhibition Point 1) was 12%, the inhibition at 1 µM ([7]; read-out: % Inhibition Point 2) was 12% and the inhibition at 1 µM ([7]; read-out: % Inhibition mean) was 12%. The inhibition at 1 µM ([8]; read-out: % Inhibition Point 1) was 6%, the inhibition at 1 µM ([8]; read-out: % Inhibition Point 2) was 7% and the inhibition at 1 µM ([8]; read-out: % Inhibition mean) was 6.46%. The inhibition at 1 µM ([9]; read-out: % Inhibition Point 1) was 7.5%, the inhibition at 1 µM ([9]; read-out: % Inhibition Point 2) was 6% and the inhibition at 1 µM ([9]; read-out: % Inhibition mean) was 6.66%. The inhibition at 1 µM ([10]; read-out: % Inhibition Point 1) was 0.378%, the inhibition at 1 µM ([10]; read-out: % Inhibition Point 2) was 0.753% and the inhibition at 1 µM ([10]; read-out: % Inhibition mean) was 0.565%. The inhibition at 1 µM ([11]; read-out: % Inhibition Point 1) was -0.0182%, the inhibition at 1 µM ([11]; read-out: % Inhibition Point 2) was -2.21% and the inhibition at 1 µM ([11]; read-out: % Inhibition mean) was -1.11%.

— publication PMC7614683, “A small molecule PI3Kα activator for cardioprotection and neuroregeneration” (Nature, 2023)
